Laboratory results as given in patent US20220213126A1, “SMALL MOLECULE AUTOPHAGY INDUCERS FOR THE TREATMENT OF CANCER AND NEURODEGENERATIVE DISEASES” (John Wayne Cancer Institute, priority 2019, published 2022).
pIC50: −log10 of the molar value. In brackets after ≈: the same amount, converted by molar mass.

Columns and labels:
[1] = tested on: MDA-MB-231 cells; assay: TNBC cell invasion, Transwells coated with Matrigel; format: cell-based; conditions: 10 μM, 24-72 hours
Protocol: FIGS. 2A and 2B are graphs showing the effect of VMY-BC-1 on TNBC cells. […] The percentage of cells crossing the chamber is presented as the mean±SEM. *P<0.05.
Effect of VMY-BC-1 on Triple Negative Breast Cancer Cell Lines A trans-stilbene boronic acid analog, VMY-BC-1, was tested against a TNBC cell line.

[2] = tested on: MDA-MB-231; assay: TMT quantitative proteomics with Ingenuity Pathway Analysis; format: cell-based; conditions: 10 μM
Protocol: A global quantitative proteomics approach using multiplexed tandem mass tagged (TMT) isotope labeling technology and shotgun mass spectrometry (Hung et al., Anal. Chem. 84:161-170, 2012) (FIG. 3) was used to quantitate approximately 5,400 proteins. MDA-MB-231 cells were treated with vehicle control (DMSO) or 10 μM VMY-BC-1 for 4 time points. Equal amounts of protein from cell lysates were trypsin digested (Step 1) and labelled with TMT 10-plex reagent (Step 2).

[3] = tested on: ATM and ULK1; assay: Cell viability assays with siRNA knock down of binding proteins; format: cell-based; conditions: preliminary
Protocol: (§1) To identify the functional target of VMY-BC-1, preliminary cell viability assays were carried out using siRNA to knock down each of the 10 identified binding proteins. […] Considering that that low ULK1 expression is associated with TNBC disease progression (Tang et al., Breast Cancer Res. Treat. 134:549-560, 2012) and autophagy controls the level of various DNA repair and checkpoint proteins in the DNA damage response pathway (Czarny et al., Int. J. Mol. Sci. 16:2641-2662, 2015; Gomes et al., Int. J. Mol. Sci. 18:2351, 2017), ULK1 activity in response to VMY-BC-1 was investigated. Protein extracts were made from MDA-MB-231 cells treated with vehicle control, VMY-BC-1 (10 μM), and Rapamycin (200 nM) at different time points.

[4] = tested on: ULK1; assay: Western blot of autophagy proteins in MDA-MB-231 cells; format: cell-based; conditions: 10 μM, MDA-MB-231, different time points
Protocol: FIG. 6 is a Western blot of autophagy proteins in TNBC cells treated with vehicle (control), VMY-BC-1, or Rapamycin. Western blot is shown for p-ULK1, LC3 A/B, and cleaved PARP.
as §1

[5] = Thermodynamic solubility; format: physicochemical; conditions: pH 7.4, aqueous buffer, thermodynamic from solid
Protocol: (§2) Moreover, PK studies of RSV in humans conclude that even high concentration of RSV might be insufficient to achieve in vivo concentrations required for the systemic prevention of cancer. Therefore, in vitro ADME assays were carried out to assess VMY-BC-1 and to identify properties for further optimization.

[6] = LogD octanol-water; format: physicochemical; conditions: pH 7.4, read-out: LogD (octanol-water partition coefficient), pH 7.4
Protocol: as §2

[7] = Stability in simulated gastric fluid; format: physicochemical
[8] = Stability in simulated intestinal fluid; format: physicochemical
[9] = target: T1, CYP2C9 (Homo sapiens, UniProt P11712); assay: CYP inhibition in pooled human liver microsomes; format: in vitro ADME
T1 construct: from tissue; host or cells: pooled human liver microsomes
T1 sequence (P11712 whole entry): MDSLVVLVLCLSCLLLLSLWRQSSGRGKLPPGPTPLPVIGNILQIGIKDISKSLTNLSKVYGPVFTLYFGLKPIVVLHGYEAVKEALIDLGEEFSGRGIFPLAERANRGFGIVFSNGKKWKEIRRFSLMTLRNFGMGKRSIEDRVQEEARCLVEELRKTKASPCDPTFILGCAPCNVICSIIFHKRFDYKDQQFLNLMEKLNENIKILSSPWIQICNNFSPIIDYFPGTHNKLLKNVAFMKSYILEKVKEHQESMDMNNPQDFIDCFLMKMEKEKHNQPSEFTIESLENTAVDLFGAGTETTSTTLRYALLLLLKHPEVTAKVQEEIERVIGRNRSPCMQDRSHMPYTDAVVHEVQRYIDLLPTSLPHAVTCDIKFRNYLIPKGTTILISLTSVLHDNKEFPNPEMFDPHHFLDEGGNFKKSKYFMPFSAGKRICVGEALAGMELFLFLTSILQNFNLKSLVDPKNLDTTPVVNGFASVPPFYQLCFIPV

[10] = tested on: GBM4; assay: GBM cell viability, Alamar blue, 72 hours; format: cell-based; conditions: GBM4, patient-derived cell line
Protocol: (§3) The effect of VMY-BC-1 was tested on a panel of GBM cell lines. […] In this study 100 μM was the highest drug concentration used, with 3-fold dilution for a 10 dose response curve.

[11] = tested on: GBM8; assay: GBM cell viability, Alamar blue, 72 hours; format: cell-based; conditions: GBM8, patient-derived cell line
Protocol: as §3

[12] = tested on: GL261; assay: GBM cell viability, Alamar blue, 72 hours; format: cell-based; conditions: Mus musculus, GL261, established glioma cell line
Protocol: as §3

[13] = tested on: U251; assay: GBM cell viability, Alamar blue, 72 hours; format: cell-based; conditions: Homo sapiens, U-251, U251, established glioma cell line
Protocol: as §3

[14] = tested on: U87; assay: GBM cell viability, Alamar blue, 72 hours; format: cell-based; conditions: Homo sapiens, U-87 MG, U87, established glioma cell line
Protocol: as §3

[15] = tested on: ULK1; assay: Western blot of autophagy proteins in U87 cells; format: cell-based; conditions: 10 μM, 12-48 hours
Protocol: FIG. 14 is a Western blot of autophagy proteins in U87 GBM cells treated with vehicle (control), VMY-BC-1, or Rapamycin. Western blot is shown for p-ULK1, LC3 A/B, and cleaved PARP.
The effect of VMY-BC-1 on autophagy-related proteins in U87 cells was tested. Protein extracts were made from cells treated with vehicle control, VMY-BC-1 (10 μM), or rapamycin (200 nM) for 12-48 hours.

[16] = tested on: U87 MG tumor xenografts; assay: U87 GBM tumor xenograft efficacy; format: in vivo, SCID mice
Protocol: To evaluate the anti-tumor efficacy of VMY-BC-1 in vivo, GBM tumor xenografts were established in the flanks of SCID mice. 5×10^6 U87 MG (ATCC HTB-14™) cells in 1×HBSS with 1:1 Matrigel® were implanted subcutaneously in the flank of 5-6 week old female SCID mice (C.B-lgh-1b/GbmsTac-Prkdc^scid-Lyst^bg N7; Taconic Biosciences, India). Mice (n=8) were treated with vehicle (2% (v/v) Tween® 80+98% (v/v) of 0.5% (w/v) hydroxypropyl methylcellulose (HPMC) in water) or VMY-BC-1 75 mg/kg PO daily for 14 days. The dose volume was 10 mL/kg. Tumor volume, tumor growth inhibition (TGI), body weight, and clinical signs were monitored as described in Example 5.

COc1ccc(/C=C/c2cc(OC)cc(B(O)O)c2)cc1 [VMY-BC-1]
TNBC cell invasion [1]: significantly inhibited TNBC cell invasion in a time-dependent manner
Pathways altered (Ingenuity Pathway Analysis) [2]: activation of apoptosis, autophagy, and DNA damage pathways, and inhibition of mTOR1, PI3K, and AKT pathways
Effect of knock down of ATM and ULK1 on functional activity [3]: abrogated the functional activity
Autophagy proteins and phosphorylation of ULK1 and LC3 A/B (Western blot) [4]: increasing amounts of autophagy proteins over time as well as increased phosphorylation of ULK1 and LC3 A/B
solubility thermodynamic [5]: 0.31 µM (≈ 0.0881 µg/mL)
logD [6]: 3.37
Stability in simulated gastric fluid [7]: stable
Stability in simulated gastric fluid, pH 1.2 ([7]; pH 1.2): 87.81% remaining
Stability in simulated intestinal fluid [8]: 97.24% remaining
Stability in simulated intestinal fluid (words) [8]: stable
pIC50 [9]: 4.11
pIC50 [10]: 4.96
pIC50 [11]: 5.03
pIC50 [12]: 5.38
pIC50 [13]: 5.40
pIC50 [14]: 5.23
Autophagy proteins and phosphorylation of ULK1 and LC3 A/B (Western blot) [15]: increasing amounts of autophagy proteins over time as well as increased phosphorylation of ULK1 and LC3 A/B
Treatment-related adverse effects (body weight and clinical signs) ([16]; 75 mg/kg once daily oral, 14 days): No treatment-related adverse effects were observed
Tumor growth inhibition ([16]; 75 mg/kg once daily oral, end of 2 weeks): 32%
Drug levels in tumor vs plasma ([16]; U87 xenograft mice, 75 mg/kg): higher VMY-BC-1 drug levels in tumor than in plasma
Apoptosis by TUNEL staining ([16]; tumor tissue, 75 mg/kg): significant increase in apoptosis
Reduction in Ki67 proliferation marker vs control ([16]; tumor tissue, 75 mg/kg): 51%
